Values of other authors as cited in US10392474B2, “Anionic linear polyglycerol derivatives, a method for manufacturing and applications” (FREIE UNIVERSITAET BERLIN, priority 2015, dated 2019).

Conditions: after subcutaneous administration

half-life: 17 h
Structure (SMILES): CO[C@H]1O[C@H](COS(=O)(=O)O)[C@@H](O[C@@H]2O[C@@H](C(=O)O)[C@@H](O[C@H]3O[C@H](COS(=O)(=O)O)[C@@H](O[C@@H]4O[C@H](C(=O)O)[C@@H](O[C@H]5O[C@H](COS(=O)(=O)O)[C@@H](O)[C@H](O)[C@H]5NS(=O)(=O)O)[C@H](O)[C@H]4O)[C@H](OS(=O)(=O)O)[C@H]3NS(=O)(=O)O)[C@H](O)[C@H]2OS(=O)(=O)O)[C@H](O)[C@H]1NS(=O)(=O)O [fondaparinux]
